# According to patent US20050203065A1, “Method of treating ischemia reperfusion injury using adenosine receptor antagonists” (priority 2002, published 2005):
# Target: T1, recombinant rat A2b adenosine receptors (Rattus norvegicus, UniProt P29276)
# T1 construct: expressed in transfected cells; host or cells: HEK-293
# T1 sequence (P29276 1-332): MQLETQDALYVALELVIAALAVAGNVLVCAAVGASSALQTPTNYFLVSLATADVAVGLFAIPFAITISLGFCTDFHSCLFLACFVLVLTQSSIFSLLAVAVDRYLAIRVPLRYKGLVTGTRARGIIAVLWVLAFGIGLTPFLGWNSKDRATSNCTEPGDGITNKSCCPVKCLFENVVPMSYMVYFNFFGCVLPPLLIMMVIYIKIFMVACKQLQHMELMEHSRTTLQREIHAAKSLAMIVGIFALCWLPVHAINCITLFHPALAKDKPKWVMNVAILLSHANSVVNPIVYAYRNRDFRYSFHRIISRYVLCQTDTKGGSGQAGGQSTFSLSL
# Assay: FLIPR calcium functional assay, rat A2b receptor in HEK-293 cells (NECA)
# Format: cell-based
# Conditions: HEK293 cells
# Experimental: FIG. 10 depicts FLIPR assay of BG9928 with recombinant […] A2b adenosine receptors stably expressed in HEK-293 cells. FLIPR assays measuring the fraction of control response observed with 10, 100, and 300 nM BG9928 in HEK-293 cells expressing rat A2b adenosine receptors in the presence of increasing concentrations of the agonist (NECA) (top graph). The bottom graph is a Schild analysis of the data presented in the top graph.
# Cells were seeded into 96-well tissue culture plates with black walls and clear bottoms, and cultured to an […] confluent monolayer. Without removing the media, an equal volume of dye (from calcium assay kit purchased from Molecular Devices) was added. Cell plates were incubated for 1 hour at 37° C. and were then transferred to the-FLIPR unit (Molecular Devices). […]
# The FLIPR integrates an argon laser excitation source, a 96-well pipettor, and a detection system utilizing a CCD (Charged Coupled Device) imaging camera. Fluorescence emissions from the 96 wells were monitored simultaneously at excitation and emission wavelength of 488 and 520 nm, respectively. Fluorescence data were collected at 0.1-sec intervals before and after simultaneous rapid addition of compounds to the 96-well plate. Results were read as relative fluorescence units (RFU). […]
compound,measurement,setting,value
"CCCn1c(=O)c2[nH]c(C34CCC(CCC(=O)O)(CC3)CC4)nc2n(CCC)c1=O [BG 9928, 3-[4-(2,6-dioxo-1,3-dipropyl-2,3,6,7-tetrahydro-1H-purin-8-yl)-bicyclo[2.2.2]oct-1-yl]-propionic acid]",pA2,"rat A2b, Schild analysis",6.59
same,Kb,"rat, null methodology",257 nM
